According to patent EP0448811A1, “New pharmaceutical composition with anti-inflammatory activity” (SCLAVO S.p.A., priority 1989, dated 1991):

Assays:
[1] = system: adjuvant-induced arthritis in the rat; experiment: adjuvant-induced arthritis in the rat (secondary lesion, uninjected paw volume by water plethysmometer); assay type: in vivo, consanguineous Lewis rats
[2] = system: plasma peptidase; conditions: compared with natural tuftsin (I); cited from earlier work

With gThr-mLys-Pro-Arg-OH [R-T] the “effectiveness relative to natural tuftsin” value ([1]; administered orally) was “at least 10 times”, the “reduction in secondary lesion development” value ([1]; intraperitoneally (i.p.), 0.1 mg/kg, three times per week until the 38th day) was “appreciable reduction in secondary lesion development, which is statistically significant only during the initial days of treatment” and the “anti-inflammatory activity (reduction in the volume of the uninjected paw)” value ([1]; oral (intragastric intubation), 0.1 mg/kg, three times per week from day 0 until the 38th day, paw volume from the 14th day) was “considerable anti-inflammatory activity”. The “reduction in secondary lesion” value ([1]; subcutaneously (s.c.), 0.1 mg/kg, three times per week until the 38th day) was “no statistically significant reduction in secondary lesion” and the “stability towards plasma peptidase” value [2] was “greater stability towards plasma peptidase”.
